# Measured values as given in PubChem BioAssay (NCI).
#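 Step 1: Grow cells in 96-well plates. Step 2: Expose to compound for 48 hours at 5 concentrations. Step 3: Interpolate endpoints linearly; if unreached, use highest concentration. The concentration for 50% growth inhibition is given as GI50. Definition used: TGI = concentration required for complete inhibition of growth.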
# Assays:
# Assay in all cases: NCI-60 cell line screen, 48 h
# 786-0 renal = tested on: 786-0 renal
# HCT-15 colon = tested on: HCT-15 colon
# HCT-116 colon = tested on: HCT-116 colon
# MDA-MB-435 = tested on: MDA-MB-435
# UO-31 renal = tested on: UO-31 renal
# SK-MEL-5 melanoma = tested on: SK-MEL-5 melanoma
# RPMI-8226 leukemia = tested on: RPMI-8226 leukemia
# HT29 colon = tested on: HT29 colon
Structure (SMILES),GI50 (786-0 renal) [µM],TGI (786-0 renal) [µM],GI50 (HCT-15 colon) [µM],TGI (HCT-15 colon) [µM],GI50 (HCT-116 colon) [µM],TGI (HCT-116 colon) [µM],GI50 (MDA-MB-435) [µM],TGI (MDA-MB-435) [µM],GI50 (UO-31 renal) [µM],TGI (UO-31 renal) [µM],GI50 (SK-MEL-5 melanoma) [µM],TGI (SK-MEL-5 melanoma) [µM],GI50 (RPMI-8226 leukemia) [µM],TGI (RPMI-8226 leukemia) [µM],GI50 (HT29 colon) [µM],TGI (HT29 colon) [µM]
COc1ccc(Cc2nc3cc(OC)c(OC)cc3c(=O)[nH]2)cc1,7.31,> 100,3.57,> 100,4.78,> 100,5.15,57.1,4.66,> 100,9.33,28.8,4.05,> 100,4.73,> 100
COC(=O)c1ccc2[nH]c(O)c(C(=Nc3ccc(N(C)C(=O)CN4CCN(C)CC4)cc3)c3ccccc3)c2c1,1.07,2.83,1.77,8.4,0.343,3.06,0.89,4.02,1.24,3.86,1.35,2.69,1.92,8.34,,
NC(N)=N/N=C(/c1ccccc1)c1ccccc1F,4.58,21,1.98,13.8,2.37,12.3,0.347,3.81,4.48,31.6,0.911,12.5,7.6,> 82.1,0.628,11.5
O=C1CCS/C(=N/S(=O)(=O)c2ccc(N3N=C4c5ccccc5CC4C3c3cccs3)cc2)N1Cc1ccccc1 (configuration not stated),17.1,32.4,15.9,31.7,20.3,34.5,21.1,44.6,28.3,> 100,14.1,28.8,18.1,> 100,37,> 100
CC1(C)CC[C@]2(C(=O)O)CC[C@]3(C)C(=CC[C@@H]4[C@@]5(C)C/C(=C/c6ccco6)C(=O)C(C)(C)[C@@H]5CC[C@]43C)[C@@H]2C1,4.12,26.5,2.5,13.4,2.9,12,3.63,14.1,2.39,11.6,2.51,8.74,2.22,10.7,3.14,14.1
O=c1nc2[nH]c3c(-c4n[nH]c(=O)[nH]c4=O)cccc3c2n[nH]1,> 100,> 100,> 100,> 100,> 100,> 100,> 100,> 100,> 100,> 100,> 100,> 100,> 100,> 100,> 100,> 100
COC(=O)[C@H](Cc1cn(C)cn1)NC(=O)[C@@H](NC(=O)Nc1cc(C(F)(F)F)cc(C(F)(F)F)c1)C(C)C,> 10,> 10,> 10,> 10,1.82,3.55,6.11,> 10,> 10,> 10,2.98,> 10,3.03,> 10,2.23,4.89
OCCCCC#Cc1ccccc1C#Cc1ccc(C(F)(F)F)cc1,4.72,18.1,12.5,25.4,16.9,35.8,16.3,31.8,16.3,30.3,17.8,33.3,19.9,48.8,3.43,18.1
COC(=O)[C@]1(C)CCC[C@]2(C)[C@@H]1CCC13C[C@@H](C=CO1)[C@@H](C)CC32O (some centres not stated),89.5,> 100,> 100,> 100,7.89,> 100,23.9,> 100,> 100,> 100,34,> 100,7.84,82,11,> 100
C=C(Cn1c2ccccc2c(=O)c2ccccc21)c1ccc(C(=O)Nc2ccccc2N)cc1,1.89,> 100,3.48,> 100,4.5,> 100,,,2.64,> 100,4.58,> 100,0.36,3.06,2.52,> 33.6
N/C(=N\C(N)=N\c1nc2ccccc2s1)c1cnccn1,2.97,> 100,3.12,> 100,,,,,2.05,4.87,2.29,5.89,3.2,> 100,2.87,> 100
O=c1[nH]c2ccc([N+](=O)[O-])c(Cl)c2c2ccccc12,,48.3,,> 100,,> 100,,7.6,,21.2,,13,,33.7,,10.6
O=C(OC[C@@H]1CO1)c1cccc2c(=O)c3ccccc3[nH]c12,0.349,2.69,0.307,3.36,0.127,10.1,0.281,1.24,,,0.21,0.473,0.33,1.84,0.311,3.17
C#Cc1cccc(NC(=O)C2CCCN(C(=O)CCl)C2)c1 (configuration not stated),> 82.5,> 82.5,28.3,> 82.5,45.9,> 82.5,69.8,> 82.5,12.9,26.4,29.7,> 82.5,> 82.5,> 82.5,> 82.5,> 82.5
COc1cc2cc3c(c(O)c2c(O)c1-c1c(OC)cc2cc4c(c(O)c2c1O)C(=O)O[C@H](C)C4)C(=O)O[C@H](C)C3,21.1,64.8,25.6,82.1,20.3,43,17.8,33.8,> 100,> 100,21.8,39.1,,,37.5,> 100
O=C(C(=O)c1cc(Br)ccc1O)c1cc(Br)ccc1O,3.87,13.7,4.05,24.1,3.38,12.7,2.84,9.25,1.97,6.51,,,2.71,88.2,14.6,> 100

Structure (SMILES),GI50 (786-0 renal) [µM],TGI (786-0 renal) [µM],GI50 (HCT-15 colon) [µM],TGI (HCT-15 colon) [µM],GI50 (HCT-116 colon) [µM],TGI (HCT-116 colon) [µM],GI50 (MDA-MB-435) [µM],TGI (MDA-MB-435) [µM],GI50 (UO-31 renal) [µM],TGI (UO-31 renal) [µM],GI50 (SK-MEL-5 melanoma) [µM],TGI (SK-MEL-5 melanoma) [µM],GI50 (RPMI-8226 leukemia) [µM],TGI (RPMI-8226 leukemia) [µM],GI50 (HT29 colon) [µM],TGI (HT29 colon) [µM]
COc1ccc(OCC(O)CN2CCN(c3ccc(Cl)cc3)CC2)cc1 (configuration not stated),> 100,> 100,> 100,> 100,> 100,> 100,> 100,> 100,,,,,> 100,> 100,> 100,> 100
CCOc1ccc(Nc2nc(-c3c(C)nc4ncccn34)cs2)cc1,0.0392,18.4,0.0467,15.4,0.0221,11.6,,,0.0537,18.6,0.0453,1.96,0.0366,14.5,,
COc1ccc(/C=C/C(C)=N/OCC(=O)Nc2ccc(Cl)cc2)cc1,4.2,26.6,2.14,15.6,1.99,9.39,2.44,9.76,1.67,22,2.36,7.98,1.89,6.21,3.87,18.2
CNCc1ccc(-c2[nH]c3cc(F)cc4c3c2CCNC4=O)cc1,19,41.5,35.8,> 100,13.1,38.6,16.5,36.1,22.2,76.2,14.7,28.1,23.7,73.3,19.5,76.3
Cc1ccc(S(=O)(=O)N2CCC(C(=O)O)(c3ccccc3)CC2)cc1,,> 100,,> 100,,> 100,,> 100,,> 100,,> 100,,> 100,,> 100
COc1ccc(/C(C)=C(\c2ccc(Cl)cc2)c2ccc(OCCN3CCCCCC3)cc2)cc1F,2.56,5.11,0.668,2.85,1.98,4.51,2.78,5.77,2.17,4.47,2.89,5.27,3.63,9.92,0.611,> 16.7
COc1c(O)c2c3c(c1OC)-c1ccccc1CC3N(S(=O)(=O)c1ccc(C)cc1)CC2 (configuration not stated),4.89,> 50,2.05,> 50,1.9,> 50,1.07,2.92,2.02,> 50,1.77,> 50,1.51,4.25,9.34,21
N#CCC1(n2cc(-c3ncnc4[nH]ccc34)cn2)CN(C2CCN(C(=O)c3ccnc(C(F)(F)F)c3F)CC2)C1,> 100,> 100,> 100,> 100,,,92.1,> 100,49.2,> 100,65.3,> 100,98.2,> 100,> 100,> 100
CCN1CCN(c2nc(NNC(=O)c3ccccc3)nc(N3CCN(C(c4ccccc4)c4ccccc4)CC3)n2)CC1,1.82,3.47,2.3,5.84,1.78,3.41,1.94,3.78,1.52,3.25,1.73,3.14,1.65,4.1,2.95,13.4
O=C(O)Cn1ccc(=O)c2cc([N+](=O)[O-])ccc21,,> 100,,> 100,,> 100,,> 100,,> 100,,> 100,,,,> 100
O=C(/C=C(\[O-])c1ccccc1)CCCCCCC(=O)/C=C(\[O-])c1ccccc1.O=C(/C=C(\[O-])c1ccccc1)CCCCCCC(=O)/C=C(\[O-])c1ccccc1.O=C(/C=C(\[O-])c1ccccc1)CCCCCCC(=O)/C=C(\[O-])c1ccccc1.[Nd+3].[Nd+3],> 50,> 50,> 50,> 50,> 50,> 50,,,> 50,> 50,> 50,> 50,43.2,> 50,> 50,> 50
c1cncc(C2ONC3=NCCN32)c1 (configuration not stated),6.22,39.2,11.5,54.7,34.6,> 100,50.8,> 100,2.27,> 100,23.6,> 100,,,35.1,> 100
Clc1ccc2c(NCCCN3CCN(c4nc(N5CCOCC5)nc5ccccc45)CC3)ccnc2c1,1.59,3.03,,,1.25,2.59,1.81,3.36,,,1.73,3.12,1.15,3.46,1.62,3.71
O=C(c1ccccc1)C(Br)C(Br)c1ccccc1 (configuration not stated),15.2,28.7,2.96,9.76,1.73,3.32,2.91,11.2,1.85,3.87,12.6,25.6,3.44,8.11,,
N#CC(NC(=O)CCl)=C(Cl)Cl,2.13,5.87,0.68,2.34,1.02,3.7,1.94,4.03,1.25,2.56,1.57,3.27,,,1.76,3.44
Nc1ncnc2c1nc(Cl)n2C1OC(CO)C(O)C1O (configuration not stated),,> 100,,> 100,,> 100,,> 100,,> 100,,> 42.2,,,,> 83
